Legend:
TLRs in RAW-Blue cells = experiment: RAW-Blue SEAP reporter / QUANTI-Blue assay (Example 20); type: cell-based, mouse; details: 24 hr incubation, different concentration
Procedure: In another experiment, in vitro biological activity of LNP-TR3 and to further confirm targeting of TLR7 and not targeting TLR8, the following experiment(s) were performed using a RAW-Blue™ (NF-κB/AP-1 inducible secreted embryonic alkaline phosphatase (SEAP) reporter gene) Cells and QUANTI-Blue™ (alkaline phosphatase assay), HEK-Blue™ (HEK 293 cell line expressing a TLR gene and an NF-κB/AP-1 inducible secreted embryonic alkaline phosphatase (SEAP) reporter gene), and hTLR8 cell line assay (InvivoGen, San Diego, CA). Briefly, despite Raw Blue™ (NF-κB/AP-1 inducible secreted embryonic alkaline phosphatase (SEAP) reporter gene) cells that express a variety of human Toll Like Receptors (TLRs) (including TLR7/8 but with the exception of TLR5) hTLR8 cells dominantly express the human TLR8. […] Stimulation of these cells with TR3 lead to NF-κB activation through TLR8 which is measured by detection of SEAP levels.
RAW-Blue™ (NF-κB/AP-1 inducible secreted embryonic alkaline phosphatase (SEAP) reporter gene) Cells were incubated with TR5, LNP-TR5, TR3, TR3+Stearic Acid, and LNP-TR3 at different concentration. After twenty-four (24) hr. incubation with the compounds, TLR stimulation was assessed by measuring the levels of SEAP optimal density (OD) using a QUANTI-Blue™ (alkaline phosphatase assay) assay. […]

human TLR8 = molecular target: T1, human TLR8 (Homo sapiens, UniProt Q9NR97); experiment: HEK-Blue TLR8 SEAP reporter / QUANTI-Blue assay (Example 20); type: cell-based; details: HEK-Blue TLR8 cells, 24 hr incubation, different concentration
T1 construct: host or cells: HEK-Blue hTLR8 (HEK 293)
T1 sequence (Q9NR97 27-1041): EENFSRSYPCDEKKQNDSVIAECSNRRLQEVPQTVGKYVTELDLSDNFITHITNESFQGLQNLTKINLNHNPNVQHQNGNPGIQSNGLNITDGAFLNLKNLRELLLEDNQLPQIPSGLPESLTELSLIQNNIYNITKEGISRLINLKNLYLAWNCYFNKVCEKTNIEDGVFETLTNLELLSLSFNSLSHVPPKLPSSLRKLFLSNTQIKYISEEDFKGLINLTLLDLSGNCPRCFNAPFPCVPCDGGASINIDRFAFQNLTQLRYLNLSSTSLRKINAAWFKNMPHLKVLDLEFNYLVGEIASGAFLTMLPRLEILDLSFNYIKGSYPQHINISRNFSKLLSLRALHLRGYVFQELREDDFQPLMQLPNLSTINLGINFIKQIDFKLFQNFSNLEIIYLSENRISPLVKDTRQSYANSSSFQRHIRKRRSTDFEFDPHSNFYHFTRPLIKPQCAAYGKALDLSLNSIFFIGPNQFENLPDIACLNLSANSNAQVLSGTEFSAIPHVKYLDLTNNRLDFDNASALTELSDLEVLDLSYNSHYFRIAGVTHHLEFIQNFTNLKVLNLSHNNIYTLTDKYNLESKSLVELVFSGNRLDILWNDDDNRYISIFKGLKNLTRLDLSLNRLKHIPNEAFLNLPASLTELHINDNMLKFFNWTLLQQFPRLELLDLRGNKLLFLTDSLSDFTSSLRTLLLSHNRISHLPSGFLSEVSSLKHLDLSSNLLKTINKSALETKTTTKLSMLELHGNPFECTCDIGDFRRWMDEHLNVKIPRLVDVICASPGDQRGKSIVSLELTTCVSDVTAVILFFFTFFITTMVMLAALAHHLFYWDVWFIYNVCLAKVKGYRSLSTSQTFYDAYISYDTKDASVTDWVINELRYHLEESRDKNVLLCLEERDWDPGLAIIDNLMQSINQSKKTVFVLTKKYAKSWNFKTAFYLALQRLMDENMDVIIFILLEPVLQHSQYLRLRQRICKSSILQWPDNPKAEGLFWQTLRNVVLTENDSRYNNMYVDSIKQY
Procedure: In another experiment, in vitro biological activity of LNP-TR3 and to further confirm targeting of TLR7 and not targeting TLR8, the following experiment(s) were performed using a RAW-Blue™ (NF-κB/AP-1 inducible secreted embryonic alkaline phosphatase (SEAP) reporter gene) Cells and QUANTI-Blue™ (alkaline phosphatase assay), HEK-Blue™ (HEK 293 cell line expressing a TLR gene and an NF-κB/AP-1 inducible secreted embryonic alkaline phosphatase (SEAP) reporter gene), and hTLR8 cell line assay (InvivoGen, San Diego, CA). Briefly, despite Raw Blue™ (NF-κB/AP-1 inducible secreted embryonic alkaline phosphatase (SEAP) reporter gene) cells that express a variety of human Toll Like Receptors (TLRs) (including TLR7/8 but with the exception of TLR5) hTLR8 cells dominantly express the human TLR8. Additionally, an NE κB/AP-1-inducible SEAP (secreted embryonic alkaline phosphatase) reporter gene were used. Stimulation of these cells with TR3 lead to NF-κB activation through TLR8 which is measured by detection of SEAP levels.

TLR4 = molecular target: T2, TLR4 (Mus musculus, UniProt Q9QUK6); experiment: RAW-Blue SEAP reporter / QUANTI-Blue assay, TLR4 (Example 18); type: cell-based; details: RAW-Blue cells, 24 hr incubation, different concentration
T2 construct: host or cells: RAW-Blue cells
T2 sequence (Q9QUK6 26-835): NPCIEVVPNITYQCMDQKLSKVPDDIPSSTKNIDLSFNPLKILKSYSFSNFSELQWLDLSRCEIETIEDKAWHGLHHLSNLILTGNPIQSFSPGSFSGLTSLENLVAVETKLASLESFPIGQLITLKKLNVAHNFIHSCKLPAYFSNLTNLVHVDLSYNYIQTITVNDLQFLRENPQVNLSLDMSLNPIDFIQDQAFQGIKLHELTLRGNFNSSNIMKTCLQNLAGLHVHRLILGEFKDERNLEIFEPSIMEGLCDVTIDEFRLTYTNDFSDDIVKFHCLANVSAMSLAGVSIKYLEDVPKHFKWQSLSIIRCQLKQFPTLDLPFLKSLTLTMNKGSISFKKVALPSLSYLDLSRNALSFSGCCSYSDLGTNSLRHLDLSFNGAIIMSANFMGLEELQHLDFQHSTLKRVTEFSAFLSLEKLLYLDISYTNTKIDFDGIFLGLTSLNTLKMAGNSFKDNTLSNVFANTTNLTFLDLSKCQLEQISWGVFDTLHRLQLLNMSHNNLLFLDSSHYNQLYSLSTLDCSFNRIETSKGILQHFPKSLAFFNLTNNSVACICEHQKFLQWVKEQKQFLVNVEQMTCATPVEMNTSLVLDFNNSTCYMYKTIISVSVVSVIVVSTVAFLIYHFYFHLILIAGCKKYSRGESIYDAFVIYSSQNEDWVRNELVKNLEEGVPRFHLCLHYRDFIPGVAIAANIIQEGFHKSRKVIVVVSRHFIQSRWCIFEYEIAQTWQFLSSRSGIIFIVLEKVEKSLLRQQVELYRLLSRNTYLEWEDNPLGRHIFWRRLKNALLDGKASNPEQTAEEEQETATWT
T2 sequence (Q9JHF9 19-160 partner): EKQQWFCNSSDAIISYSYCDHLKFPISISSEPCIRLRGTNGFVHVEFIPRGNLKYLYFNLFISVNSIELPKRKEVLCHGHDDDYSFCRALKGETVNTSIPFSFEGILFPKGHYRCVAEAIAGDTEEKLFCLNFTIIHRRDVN
Procedure: In another experiment, in vitro biological activity of LNP-TR8 and to further confirm targeting of TLR4, the following experiment(s) were performed using a RAW-Blue™ (NF-[…]/AP-1 inducible secreted embryonic alkaline phosphatase (SEAP) reporter gene) Cells and QUANTI-Blue™ (alkaline phosphatase assay) assay (InvivoGen, San Diego, CA). Briefly, Raw Blue™ (NF-κB/AP-1 inducible secreted embryonic alkaline phosphatase (SEAP) reporter gene) cells that express human Toll Like Receptors (TLRs) (with the exception of TLR5) and an NF-κB/AP-1-inducible SEAP (secreted embryonic alkaline phosphatase) reporter gene were used. Stimulation of these cells with TR8 lead to NF-κB activation through TLR4 which is measured by detection of SEAP levels. RAW-Blue™ (NF-κB/AP-1 inducible secreted embryonicalkaline phosphatase (SEAP) reporter gene) Cells were incubated with TR8 and LNP-TR8 at different concentration. After twenty-four (24) hr. incubation with the compounds, TLR stimulation was assessed by measuring the levels of SEAP optimal density (OD) using a QUANTI-Blue™ (alkaline phosphatase assay) assay. ODs were normalized to the control (untreated) group. […] (See, FIG. 26).

CCCCCCCCCCCCCCCCCCS(=O)(=O)NCCCCn1c(CC)nc2c(N)nc3ccccc3c21 [TR3+Stearic Acid]
TLR stimulation (SEAP OD normalized to untreated control) (TLRs in RAW-Blue cells): stimulated TLRs | TLR stimulation (SEAP OD normalized to untreated control) (human TLR8): only TR5 in prodrug and liposome form were able to stimulate the cells

Monophosphoryl Lipid A (Synthetic) [TR8]
TLR stimulation (SEAP OD normalized to untreated control) (TLR4): could cause stimulation of TLR4
